Measurements from patent US4428936A, “Antibacterial composition for medical use” (Toyama Chemical Co., Ltd., priority 1978, dated 1984).

Legend:
K. pneumoniae Y-4 = assay: Effect of combined use on experimental infection in mice (protection); type: in vivo, mice (ICR strain) infected with K. pneumoniae; details: challenge dose 5.7 × 10^7 cells/mouse, peritoneal; subcutaneous administration one and two hours after inoculation
Source text: (§1) Male mice (5 mice per group) of the ICR strain, 4 weeks of age, were peritoneally inoculated with the prescribed number of pathogenic bacteria suspended in 5% mucin. After one hour and two hours following the inoculation, test preparations shown in Table 5 were subcuataneously administered to examine the protection effect.

K. pneumoniae Y-53 = assay: as above; type: in vivo, mice (ICR strain) infected with K. pneumoniae; details: challenge dose 1.0 × 10^7 cells/mouse, peritoneal; subcutaneous administration one and two hours after inoculation
Source text: as §1

[1] = test system: Klebsiella pneumoniae Y-4; assay: Growth-inhibition test on clinically isolated strain (agar, about 10^8 cells/ml); type: cell-based; design: key: (+) means that the test bacterium grew; (-) means that the test bacterium did not grow; details: Methicillin sodium: 3200,1600,800,400,200,100,50,25,12.5,0 μg/ml, 18 hours, 37° C
Description: (§2) Heart Infusion agar containing a prescribed amount of Methicillin sodium or T-1551 Na was inoculated with the test bacterium at a rate of about 10^8 cells/ml. After incubation for 18 hours at 37° C., the growth of the test bacterium was inspected.

[2] = test system: Pseudomonas aeruginosa S-111; assay: as above; type: cell-based; design: key: (+) means that the test bacterium grew; (-) means that the test bacterium did not grow; details: Methicillin sodium 3200,1600,800,400,200,100,50,25,12.5,0 μg/ml, 18 hours, 37° C
Description: as §2

Escherichia coli TK-3 [3] = assay: as above; type: cell-based; design: key: (+) means that the test bacterium grew; (-) means that the test bacterium did not grow; details: Methicillin sodium: 3200,1600,800,400,200,100,50,25,12.5,0 μg/ml, 18 hours, 37° C
Description: as §2

[4] = test system: Klebsiella pneumoniae GN 69; assay: Growth-inhibition test with potassium clavulanate; type: cell-based; design: key: (+) means that the test bacterium grew; (-) means that the test bacterium did not grow; details: potassium clavulanate 100,25,6.25,1.6,0.4,0 μg/ml
Description: as §2
(§3) The same operation as in Test Example 1 was repeated, except that the Methicillin sodium was replaced by potassium clavulanate and the test bacteria were replaced by those shown in Tables 6, 7 and 8, to obtain the results shown in Tables 6, 7 and 8.

Escherichia coli GN 6299 = assay: Growth-inhibition test with potassium clavulanate; type: cell-based; design: key: (+) means that the test bacterium grew; (-) means that the test bacterium did not grow; details: potassium clavulanate by line b171,b173-b182: 100,(unlabelled),25,(unlabelled),6.25,(unlabelled),1.6,(unlabelled),0.4,(unlabelled),0 μg/ml
Description: as §2, §3

[5] = test system: Pseudomonas aeruginosa GN 3345; assay: Growth-inhibition test with potassium clavulanate; type: cell-based; design: key: (+) means that the test bacterium grew; (-) means that the test bacterium did not grow; details: potassium clavulanate by line b219-b229: 100,(unlabelled),25,(unlabelled),12.5,(unlabelled),3.1,(unlabelled),0.4,(unlabelled),0 μg/ml
Description: as §2, §3

[6] = test system: Klebsiella pneumoniae Y-4; assay: Minimum inhibitory concentration; type: cell-based; details: Y4; Klebsiella pneumoniae Y-4 strain
Description: (§4) The minimum inhibitory concentration of T-1551 Na or Methicillin sodium against Escherichia coli TK-3 strain or Kleosiella pneumoniae Y-4 strain was greater than 800 μg/ml in each case.

Escherichia coli TK-3 [7] = assay: Minimum inhibitory concentration; type: cell-based; details: TK3; Escherichia coli TK-3 strain
Description: as §4

[8] = T-1551 Na unlabelled column between 12.5 and 3.1 μg/ml
[9] = T-1551 Na unlabelled column between 50 and 12.5 μg/ml
[10] = T-1551 Na unlabelled column between 200 and 50 μg/ml
[11] = T-1551 Na unlabelled column between 800 and 200 μg/ml

CCN1CCN(C(=O)N[C@@H](C(=O)N[C@@H]2C(=O)N3C(C(=O)O)=C(CSc4nnnn4C)CS[C@H]23)c2ccc(O)cc2)C(=O)C1=O [T-1551 Na, sodium 7-[D(-)-α-(4-ethyl-2,3-dioxo-1-piperazinylcarbonylamino)-p-hydroxyphenylacetamide]-3-[5-(1-methyl-1,2,3,4-tetrazolyl)thiomethyl]-Δ^3-cephem-4-carboxylate]
-: growth of the test bacterium ([4]; T-1551 Na 800 μg/ml) | growth of the test bacterium ([5]; T-1551 Na 800 μg/ml) | growth of the test bacterium [5, 11]
+: growth of the test bacterium ([1]; T-1551 Na 0.78 μg/ml) | growth of the test bacterium ([1]; T-1551 Na 1.56 μg/ml) | growth of the test bacterium ([1]; T-1551 Na 3.13 μg/ml) | growth of the test bacterium ([1]; T-1551 Na 6.25 μg/ml) | growth of the test bacterium ([1]; T-1551 Na 12.5 μg/ml) | growth of the test bacterium ([1]; T-1551 Na 25 μg/ml) | growth of the test bacterium ([1]; T-1551 Na 50 μg/ml) | growth of the test bacterium ([1]; T-1551 Na 100 μg/ml) | growth of the test bacterium ([1]; T-1551 Na 200 μg/ml) | growth of the test bacterium ([2]; T-1551 Na 0.78 μg/ml) | growth of the test bacterium ([2]; T-1551 Na 1.56 μg/ml) | growth of the test bacterium ([2]; T-1551 Na 3.13 μg/ml) | growth of the test bacterium ([2]; T-1551 Na 6.25 μg/ml) | growth of the test bacterium ([2]; T-1551 Na 12.5 μg/ml) | growth of the test bacterium ([2]; T-1551 Na 25 μg/ml) | growth of the test bacterium ([2]; T-1551 Na 50 μg/ml) | growth of the test bacterium ([2]; T-1551 Na 100 μg/ml) | growth of the test bacterium ([2]; T-1551 Na 200 μg/ml) | growth of the test bacterium (Escherichia coli TK-3 [3]; T-1551 Na 0.78 μg/ml) | growth of the test bacterium (Escherichia coli TK-3 [3]; T-1551 Na 1.56 μg/ml) | growth of the test bacterium (Escherichia coli TK-3 [3]; T-1551 Na 3.13 μg/ml) | growth of the test bacterium (Escherichia coli TK-3 [3]; T-1551 Na 6.25 μg/ml) | growth of the test bacterium (Escherichia coli TK-3 [3]; T-1551 Na 12.5 μg/ml) | growth of the test bacterium (Escherichia coli TK-3 [3]; T-1551 Na 25 μg/ml) | growth of the test bacterium (Escherichia coli TK-3 [3]; T-1551 Na 50 μg/ml) | growth of the test bacterium (Escherichia coli TK-3 [3]; T-1551 Na 100 μg/ml) | growth of the test bacterium (Escherichia coli TK-3 [3]; T-1551 Na 200 μg/ml) | growth of the test bacterium ([4]; T-1551 Na 0.2 μg/ml) | growth of the test bacterium ([4]; T-1551 Na 0.8 μg/ml) | growth of the test bacterium ([4]; T-1551 Na 3.1 μg/ml) | growth of the test bacterium ([4]; T-1551 Na 12.5 μg/ml) | growth of the test bacterium ([4]; T-1551 Na 50 μg/ml) | growth of the test bacterium ([4]; T-1551 Na 200 μg/ml) | growth of the test bacterium (Escherichia coli GN 6299; T-1551 Na 0.2 μg/ml) | growth of the test bacterium (Escherichia coli GN 6299; T-1551 Na 0.8 μg/ml) | growth of the test bacterium (Escherichia coli GN 6299; T-1551 Na 3.1 μg/ml) | growth of the test bacterium (Escherichia coli GN 6299; T-1551 Na 12.5 μg/ml) | growth of the test bacterium (Escherichia coli GN 6299; T-1551 Na 50 μg/ml) | growth of the test bacterium (Escherichia coli GN 6299; T-1551 Na 200 μg/ml) | growth of the test bacterium (Escherichia coli GN 6299; T-1551 Na 800 μg/ml) | growth of the test bacterium (Escherichia coli GN 6299; T-1551 Na unlabelled column between 0.8 and 0.2 μg/ml) | growth of the test bacterium (Escherichia coli GN 6299; T-1551 Na unlabelled column between 3.1 and 0.8 μg/ml) | growth of the test bacterium (Escherichia coli GN 6299; [8]) | growth of the test bacterium (Escherichia coli GN 6299; [9]) | growth of the test bacterium (Escherichia coli GN 6299; [10]) | growth of the test bacterium (Escherichia coli GN 6299; [11]) | growth of the test bacterium ([5]; T-1551 Na 3.1 μg/ml) | growth of the test bacterium ([5]; T-1551 Na 12.5 μg/ml) | growth of the test bacterium ([5]; T-1551 Na 50 μg/ml) | growth of the test bacterium ([5]; T-1551 Na 200 μg/ml) | growth of the test bacterium [5, 8] | growth of the test bacterium [5, 9] | growth of the test bacterium [5, 10]
> 800 µg/mL: MIC [6] | MIC (Escherichia coli TK-3 [7])
> 26.8 mg/mouse: ED50 (protection effect) (K. pneumoniae Y-4)
> 10.0 mg/mouse: ED50 (protection effect) (K. pneumoniae Y-53)
